Assay results published in patent US12274703B2, “Compositions and methods of treatment for neurological disorders comprising a dementia” (Gliapharm SA, priority 2017, dated 2025).

Experiments:
astrocytes = experiment: Intracellular glycogen quantification; assay type: cell-based, mouse; details: CDC54K hits; 10 μM, 3 h
[1] = test system: cerebral extracellular lactate; experiment: In vivo pharmacodynamics - lactate biosensors; set-up: species or system mouse; details: 100 mg/kg per os; AUC ratio vs vehicle
Method: Extracellular levels of lactate were monitored in vivo using lactate biosensors (Pinnacle Technology), according to the manufacturer's instructions. Cannulae were surgically implanted in mice cerebral motor cortex areas M1/M2 (coordinates: +1.94 mm (to bregma), lateral −1.4 mm (to mideline), ventral −1.0 mm (to dura)) 5-7 days before administration of the compounds. Drugs were administered per os as previously described, and cerebral levels of extracellular lactate were dynamically recorded for 6 hours. Mice were administered vehicle alone first, followed 3 hours later by vehicle or drug (10 or 100 mg/kg). Area Under the Curve (AUC) quantifying the fluctuations of extracellular lactate concentrations for each of the compound tested was calculated using Graphad Prism and the ratio of AUC after drug over Vehicle administration was calculated. Groups of 8 male mice were used for each condition.
To measure biological effect of lead molecules in vivo in the brain, lactate levels were quantified after administration of the drug by using lactate biosensors implanted in the cortex of freely moving mice.

primary astrocytes = experiment: Intracellular glycogen quantification, Example 2; assay type: cell-based, mouse; details: 10 μM, 3 h (GP-0157: 0.1, 1, 10 μM)
Method: Primary cultures of cerebrocortical astrocytes were obtained from 1 to 2-day-old OF1 mouse pups (Charles River). Briefly, cortices were isolated and minced in small pieces under a dissecting microscope. The cells were incubated for 30 min at 37° C. in a solution containing 20 U/ml papain, 1 mM L-cysteine and 10 kU/ml DNase I. After dissociation, papain activity was stopped by the addition of fetal calf serum (FCS). Single-cell suspension was then obtained by mechanical dissociation, which consisted in cells trituration in a DMEM D7777 medium supplemented with 44 mm NaHCO3, 10 ml/L antibiotic/antimycotic solution and 10% FCS. The cells were seeded at an average density of ˜10,000 cells/cm2 on poly-D-lysine coated 96- or 12-well culture plates, depending on their use, and grown in DMEM D7777 medium supplemented with 44 mm NaHCO3, 10 ml/L antibiotic/antimycotic solution and 10% FCS at 37° C. in a humidified atmosphere containing 5% CO2/95% air. Culture medium was renewed twice a week. Cells were stimulated and harvested between DIV14 and DIV17, when confluence and cell growth were optimal.
Astrocytes grown on 12-well plates were used for intracellular glycogen quantifications. Cells were stimulated with Vehicle (DMSO), with compounds of the invention (10 μM), or with a positive control for 180 min, at 37° C. 5% CO2/95% air in D5030 medium complemented with 5 mM D-glucose and 44 mM sodium bicarbonate (pH 7.2). […] At the end of the stimulation, medium was removed and replaced with 600 μl of 30 mM Tris HCl, and stored at −20° C.
First, the amount of proteins in each sample was quantified to assess whether harvested astrocytes from primary cell cultures yielded enough and equivalent amounts of proteins on each replicates. Proteins were quantified using the micro BCA Protein Assay kit (Thermo Scientific), according to manufacturer's instructions. Next, intracellular glycogen concentrations were quantified using a 250 μl-aliquot of the same stimulated, thawed, and sonicated cell lysate. After an incubation period of 30 min at 90° C. and 400 rpm, 28 μl of a 0.1M acetic acid/sodium acetate buffer (pH 4.6) was added to each lysate aliquots, which were then separated in two. Each split aliquots received either 5 μl of amyloglucosidase or H2O, and incubated for 120 min at 37° C. After centrifugation at 16,000 G for 5 min, 20 μl of supernatant were placed in a 96-well plate, to which 150 μl of a mix containing 0.67 mM ATP, 0.67 mM NADP, 1.8% hexokinase/glucose-6-phosphate dehydrogenase in a 0.1M Tris Buffer-HCl/3.3 mM magnesium (pH 8.1) buffer was added. Fluorescence intensity (340 nm excitation/440 nm emission) was measured using a Safire 2 spectrophotometer. Glucose concentrations were assessed relative to a glucose standard curve, and glycogen concentrations were calculated by subtracting glucose values of samples that had received amyloglucosidase (i.e. that had degraded their glycogen stores) to samples that had not. Intracellular levels of glycogen, which is the main source of glucose storage in the brain, were analyzed in primary astrocytes after treatment with compounds of interest (10 μM, 3 h) (FIG. 5B), and compound GP-0157 (0.1, 1, 10 μM, 3 h) (FIG. 18).

CC(=O)N1CCc2sc(S(=O)(=O)N3CCN(c4ccccc4C)CC3)cc2C1 [P025-0159]
Glycogen (statistical significance of glycogen degradation) (astrocytes): ns
Cerebral lactate [1]: Significant increase
Mobilization of intracellular glycogen (primary astrocytes): significantly enhance

CCn1nccc1-c1csc(S(=O)(=O)Nc2ccc(Cl)cc2F)c1 [L924-1031]
Mobilization of intracellular glycogen (primary astrocytes): significantly enhance

Cc1ccccc1NC(=O)C1CCCN(c2ncnc3oc(C)c(C)c23)C1 (stereo not shown) [F228-0422]
Mobilization of intracellular glycogen (primary astrocytes): significantly enhance

O=C1CCCN1c1ccc(S(=O)(=O)Nc2cccc(/C=C/c3ccccn3)c2)cc1 [T5644989]
Mobilization of intracellular glycogen (primary astrocytes): significantly enhance

O=S(=O)(Nc1cc(F)cc(F)c1)c1ccc2ccccc2c1 [T5884038]
Mobilization of intracellular glycogen (primary astrocytes): significantly enhance

c1ccc2c(c1)CCN(c1ncnc3sccc13)C2 [T0517-8250]
Glycogen (statistical significance of glycogen degradation) (astrocytes): ns
Mobilization of intracellular glycogen (primary astrocytes): significantly enhance

COc1ccccc1[N+]1=C2CCCCCN2C(O)(c2ccc(C)cc2)C1 (stereo not shown) [K404-0834]
Mobilization of intracellular glycogen (primary astrocytes): significantly enhance

N#Cc1ccc(C(=O)N2CCC(Nc3ncnc4c3CCC4)C2)cc1 (stereo not shown) [T636-2387]
Glycogen (statistical significance of glycogen degradation) (astrocytes): ns
Cerebral lactate [1]: Significant increase
Mobilization of intracellular glycogen (primary astrocytes): significantly enhance

Cc1nc2ccc(NS(=O)(=O)c3cccc(F)c3)cc2s1 [T6937001]
Glycogen (statistical significance of glycogen degradation) (astrocytes): ns
Mobilization of intracellular glycogen (primary astrocytes): significantly enhance

COc1ccc(Nc2nc(N3CCOCC3)c3ccccc3n2)cc1.Cl [T0508-5190]
Mobilization of intracellular glycogen (primary astrocytes): significantly enhance

COc1cc(C)c(Cl)cc1S(=O)(=O)NCc1ccncc1 [T5580243]
Glycogen (statistical significance of glycogen degradation) (astrocytes): ns
Cerebral lactate [1]: Significant increase

CCc1nc(-c2csc(S(=O)(=O)NCc3ccc4c(c3)OCO4)c2)no1 [L287-0468]
Mobilization of intracellular glycogen (primary astrocytes): significantly enhance
